Laboratory results published in patent US7579006B2, “Method of treating immune pathologies with low dose estrogen” (Oregon Health and Science University, priority 2000, dated 2009).

Columns and labels:
Format in all cases: in vivo
female SJL mice = assay: EAE induced with PLP 139-151 in female SJL mice (clinical scores, spinal cord histopathology); settings: for Demyelinated foci/section / Inflammatory foci/section: spinal cord at peak of disease
[1] = Serum 17β-estradiol measured by RIA in Tg mice; settings: 0.36 mg pellet
Experimental: Androgen and estrogen detection. Mice were bled by cardiac puncture and the blood was allowed to clot at 4° C. overnight. The samples were centrifuged, and the sera collected and stored at −80° C. until hormone analysis was performed. Serum levels of estrogen were determined by radioimmunoassay (RIA) after Sephadex LH-20 column chromatography, as described in Roselli et al., Endocrine 64:139 (1996). All samples were analyzed in a single assay.
17β-estradiol treatment. For 17β-estradiol hormone therapy, 3-mm pellets containing 0.36 mg of 17β-estradiol (Innovative Research of America, Sarasota, Fla.), expected to provide physiological equivalence of the estrus cycle (150-200 pg/ml in serum) over 60 days, were implanted s.c. on the animal's back 7 days before induction of EAE. […] The 17β-estradiol pellets provide continuous controlled release of a constant level of hormone over a period of 60 days. Serum concentrations of 17β-estradiol were evaluated in representative mice from each group. Sham treated mice had variable levels of 17β-estradiol that reflected both estrus and diestrus mice (ranging from about 20 to 200 pg/ml, on average about 50 pg/ml). […] E2-treated intact mice were also variable (about 200-400 pg/ml), reflecting the combination of native estrus/diestrus levels plus the exogenous estradiol from the pellet, whereas the E2-treated OVX mice were somewhat lower (about 150-200 pg/ml).

C57BL/6 mice = assay: EAE induced with MOG 35-55 in C57BL/6 mice (clinical, histopathology)
Experimental: Estrogen treatment. Sixty-day release pellets containing 2.5 mg of 17β-estradiol (E2) or vehicle were implanted subcutaneously (s.c) in the scapular region behind the neck using a 12-gauge trochar as described by the manufacturer (Innovative Research of America, Sarasota, Fla.). The mice were implanted one week prior to immunization with MOG 35-55. The concentration of E2 expected in the serum is between 1,500-2,000 pg/ml, which is approximately 5 times less than the levels found during pregnancy.
Induction of EAE. C57BL/6 and cytokine deficient mice were inoculated s.c in the flanks with 0.2 ml of an emulsion containing 200 μg of MOG 35-55 in saline and an equal volume of complete Freund's Adjuvant (CFA) containing 400 μg of Mycobacterium tuberculosis H37RA (Difco Laboratories, Detroit, Mich.). Disease induction required i.v. administration of pertussis toxin on the day of immunization (25 ng/mouse) and 2 days later (67 ng/mouse). The mice were assessed daily for clinical signs of EAE according to the 7 point scale described in Example I.
Histopathology. Histopathologic assessment of spinal column section was performed essentially as described in Example I, except that sections were stained with either luxol fast blue-periodic acid schiff-hematoxylin or silver nitrate prior to analysis.
Statistical analysis. Significant differences in incidence and mortality between untreated and E2 treated mice were assessed by Chi-square analysis. Difference in onset was determined using the two-tailed Student t test. Differences in peak score and cumulative disease index (CDI) were assessed by the Mann-Whitney test. Statistical significance of the frequency of cytokine secreting cells was analyzed using Student's t test for comparisons of two means. Differences in the expression of chemokine and cytokine mRNA were also determined using the Student t test. Values of p<0.05 were considered significant.

[2] = test system: draining lymph node (LN) cells; assay: MOG 35-55 stimulated proliferation of draining lymph node cells; settings: WT and cytokine deficient mice, 2.5 mg pellet
Experimental: Proliferation assay. Proliferation assays were performed on draining lymph node (DLN) and spleen (SP) cells essentially as described in Examples I and II, using MOG 35-55 as the test antigen. […] Proliferation of draining lymph node (LN) cells from either untreated or E2 treated mice was measured to determine if E2 could alter the ability of T lymphocytes to recognize and respond to the immunizing antigen. LN cells were isolated from three representative mice for each group and the cells pooled prior to stimulation with MOG 35-55 for 72 hr.

## C[C@]12CC[C@@H]3c4ccc(O)cc4CC[C@H]3[C@@H]1CC[C@@H]2O [17β-estradiol]
Female SJL mice; 0.025 mg/pellet (diestrus)
  CDI (cumulative disease index): 19.2 ± 10.0
  Incidence: 15/18
  Incidence (%): (83%)
  Onset: 15.8 ± 3.5 days
  Peak (disease score): 3.6 ± 1.3
  Relapse: 5/9
  Relapse (%): (56%)
Female SJL mice; 0.1 mg/pellet (diestrus)
  CDI (cumulative disease index): 8.9 ± 3.4
  Incidence: 12/19
  Incidence (%): (63%)
  Onset: 14.5 ± 2.0 days
  Peak (disease score): 2.0 ± 0.9
  Relapse: 2/9
  Relapse (%): (22%)
Female SJL mice; 0.36 mg pellet
  Demyelinated foci/section: 0.5 ± 0.3 foci/section
  Inflammatory foci/section: 1.3 ± 0.8 foci/section
Female SJL mice; 0.36 mg/pellet (estrus)
  CDI (cumulative disease index): 9.8 ± 1.9
  Incidence: 15/19
  Incidence (%): (79%)
  Onset: 15.1 ± 1.3 days
  Peak (disease score): 2.5 ± 0.6
  Relapse: 2/9
  Relapse (%): (22%)
Female SJL mice; 2.5 mg pellet
  Demyelinated foci/section: 0.5 ± 0.4 foci/section
  Inflammatory foci/section: 0.6 ± 0.8 foci/section
Female SJL mice; 2.5 mg/pellet (pregnancy)
  CDI (cumulative disease index): 7.5 ± 7.9
  Incidence: 4/10
  Incidence (%): (40%)
  Onset: 13.8 ± 0.5 days
  Peak (disease score): 2.0 ± 2.1
  Relapse: 0/4
  Relapse (%): (0%)
Female SJL mice; Fisher exact test, same animal model
  comparison of E2 and E3 in incidence or severity of EAE: equally protective
[1]; OVX Tg mice
  serum 17β-estradiol: 100 to 200 pg/mL
[1]; OVX Tg mice, listed as E2
  serum 17β-estradiol: 150 to 200 pg/mL
[1]; intact Tg mice (pellet plus native hormone)
  serum 17β-estradiol: 150 to 400 pg/mL
[1]; intact Tg mice (pellet plus native hormone), listed as E2
  serum 17β-estradiol: 200 to 400 pg/mL
C57BL/6 mice; B6, 2.5 mg pellet
  CDI: 15.1 ± 17.0
  Incidence: 19/31
  Mortality: 0/31
  Onset: 20.8 ± 3.7
  Peak Score: 4.2 ± 1.2
C57BL/6 mice; C57BL/6, 2.5 mg pellet, spinal cord
  Inflammatory foci/section: 0.0 ± 0.0 Foci/Section
[2]
  LN proliferation response to MOG 35-55: no effect
